According to the NIST ThermoML archive (doi:10.1016/j.fluid.2008.06.011):

Assay: excess molar enthalpy (molar enthalpy of mixing); xn = mol fraction of the nth substance listed
Settings: 298.15 K, 101 kPa, Liquid, Calvet calorimetry

CCCCCCCCCC [decane] + CCCO
Settings | excess molar enthalpy [kcal/mol]
x2 = 0.1544 | 0.158
x2 = 0.1615 | 0.162
x2 = 0.2718 | 0.184
x2 = 0.3642 | 0.189
x2 = 0.4594 | 0.188
x2 = 0.5576 | 0.176
x2 = 0.6121 | 0.165
x2 = 0.6669 | 0.151
x2 = 0.7249 | 0.136
x2 = 0.7574 | 0.125
x2 = 0.7667 | 0.123
x2 = 0.8113 | 0.107
x2 = 0.8517 | 0.0894
x2 = 0.885 | 0.0741
x2 = 0.9219 | 0.0535
x2 = 0.9602 | 0.0292
x2 = 0.9832 | 0.0103
